Literature values in patent EP1870093A1, “Pharmaceutical combination comprising adenosine A1 receptor antagonists and radiocontrast media” (Solvay Pharmaceuticals GmbH, priority 2006, dated 2007).

System: radiocontrast media induced nephropathy
Conditions: Shammas 2001; Welch 2002; Huber 2002

Compound	protection against radiocontrast media induced nephropathy
Cn1c(=O)c2[nH]cnc2n(C)c1=O [Aminophylline, aminophylline]	does not appear to add a protective role
Cn1c(=O)c2[nH]cnc2n(C)c1=O [theophylline]	effective in preventing radiocontrast media induced nephropathy
